Earlier results in patent US20070021605A1, “PROCESS AND COMPOSITION FOR MAKING OLANZAPINE FORM I” (priority 2005, published 2007).

Conditions: water, pH 6.8; free base

Q: Which solubility does the source give for Cc1cc2c(s1)Nc1ccccc1N=C2N1CCN(C)CC1 [Olanzapine] here?
A: The solubility was “about 0.02 mg/ml”.
